Test [1] concerns Muc5ac secretion. Nature of the test: In vivo instillation, then Muc5ac secreted into culture supernatant of sampled conjunctival tissue (ELISA). The arrangement: species or system white rabbit. Conditions: 100 μM instilled 4 times per day for 3 days; tissue soaked in HBSS 1.5 and 3 hours, n=6, FIG. 4a. As to the method:
In order to examine whether or not Compound 1 enhances Muc5ac secretion, in vivo experiments were carried out using white rabbits (Slc:JW/CSKSlc:NZW strain).
(§1) Specifically, the right eye of a white rabbit was subjected to instillation administration of a solution containing 100 μM of Compound 1, which had been dissolved in a physiological saline solution, at a dosage of 30 μL to 50 μL/dose 4 times per day. The left eye was subjected to instillation administration of a physiological saline solution as a control at a dosage of 30 μL to 50 μL/dose 4 times per day. For each group, the experiment was performed at n=6.
After 3 days with the above administration, each white domestic rabbit was euthanized and its conjunctival tissue was sampled using a trephine with a diameter of 5 mm. The sample was soaked in an HBSS; its culture supernatant was collected after an hour and a half; and further, after 3 hours, its culture supernatant and conjunctival tissue were collected. The amount of Muc5ac included in the culture supernatant was quantified using the same ELISA assay as in Example 1.
In general terms: An ELISA detects its analyte on a solid surface through an enzyme-linked reagent.

Test [2] relates to Muc5ac in conjunctival tissue. Nature of the test: In vivo instillation, then PAS staining of conjunctival tissue sections. More on the design: species or system white rabbit. Conditions: 100 μM instilled 4 times per day, FIG. 5. As to the method:
as §1
Further, the conjunctival tissues from the control group and the administration group were subjected to PAS staining, which stains neutral polysaccharides and glycoproteins. Specifically, a conjunctival tissue was collected from a rabbit; the conjunctive tissue collected was cut into regions at the upper, nasal, lower, and ear sides; and paraffin sections were prepared. Next, after washed with distilled water for deparaffinization, the sections were immersed in 3% acetic acid aqueous solution and soaked in an alcian blue solution for 30 minutes. After washed with distilled water, the sections were soaked in 1% periodic acid aqueous solution for 10 minutes, washed with running water for 5 minutes, and washed with distilled water. After soaked in a cold Schiff reagent for 10 minutes, the sections were soaked in sulfurous acid solution for 3 minutes and subjected to sulfurous acid solution treatment. […]

The test system of test [3] is Muc5ac protein in conjunctival tissue. Put plainly: In vivo instillation, then amount of Muc5ac protein in conjunctival tissue lysate (ELISA). The arrangement: species or system white rabbit. As to conditions: 100 μM instilled 4 times per day for 3 days; tissue lysate at 500 ng/μL protein, FIG. 4b. The method, then:
as §1
After 3 days with the above administration, each white domestic rabbit was euthanized and its conjunctival tissue was sampled using a trephine with a diameter of 5 mm. […] The amount of Muc5ac included in the culture supernatant was quantified using the same ELISA assay as in Example 1.
Meanwhile, 150 μL of SDS(−) RIPA lysis buffer (manufactured by Nacalai Tesque, Inc.) was added to the conjunctival tissue collected, and the tissue was soaked and incubated at 4° C. for 30 minutes, followed by homogenization. […] After a protein concentration was measured using Nano Drop (manufactured by Thermo Scientific, Inc.), the protein concentration was adjusted to 500 ng/μL. Subsequently, the amount of Muc5ac included in the protein solution prepared was quantified using the same ELISA assay as in Example 1.

The test system of test [4] is corneal epithelial tissue wound. Put plainly: Wound healing effect on corneal epithelial tissue in vivo (fluorescein staining, wound area). More on the design: species or system white rabbit. As to conditions: 100 μM solution instilled 30-50 μL/dose 4 times per day. As to the method:
In order to examine an wound healing effect of Compound 1 on an corneal epithelial tissue, in vivo experiments were carried out using white rabbits (Slc:JW/CSKSlc:NZW strain).
Specifically, a trephine with a diameter of 8 mm was used to create a wound on a corneal epithelial tissue of a white rabbit. From the day of creating the wound, the test group was subjected to instillation administration of a solution containing 100 μM of Compound 1, which had been dissolved in a physiological saline solution, at a dosage of 30 μL to 50 μL/dose 4 times per day. The control group was subjected to instillation administration of a physiological saline solution at a dosage of 30 μL to 50 μL/dose 4 times per day. For each group, the experiment was performed at n=5.
In order to determine the area of the wound on the corneal epithelial tissue, a physiological saline solution and a fluorescein test paper were used to perform fluorescein staining of the corneal epithelial tissue; and a time course change in the area of the wound on the corneal epithelium was observed while its photographs were taken. The wound area was image-processed using Image J software and was statistically analyzed.

The test system of test [5] is Muc5ac secretion from conjunctival tissue. Put plainly: Ex vivo Muc5ac secretion from conjunctival tissue, culture supernatant quantified by ELISA. The test is classed as cell-based, white rabbit. Conditions: for amount of Muc5ac in culture supernatant in the presence of Compound 1: n=5, FIG. 1(b). As to the method: In order to examine an effect of Compound 1 on an amount of Muc5ac secretion, ex vivo experiments were carried out using a conjunctival tissue from a white rabbit (Slc:JW/CSKSlc:NZW strain).
Specifically, a trephine with a diameter of 3 mm was used to sample a conjunctival tissue from a white rabbit. Next, the tissue sample was soaked in an HBSS containing 100 μM of Compound 1 for 90 minutes, 3 hours, 6 hours, or 12 hours. The conjunctival tissue of the control group was soaked in an HBSS having a physiological saline with a volume equal to that of Compound 1. After the conjunctival tissue was soaked for a predetermined time, its culture supernatant was collected. For each group, the experiment was performed at n=5.
The amount of Muc5ac included in the culture supernatant was detected using the following assay.
Assay for Muc5ac Secretion (ELISA Assay)
First, the culture supernatant of the conjunctival tissue of the control group was diluted using an HBSS, and a standard curve was prepared at a Muc5ac concentration of 500, 250, 125, 62.5, 31.25, 15.63, and 7.81 AU/mL (AU represents an arbitrary unit). The sample solutions were diluted with an HBSS in such a manner that absorbance at a wavelength of 450 nm was fitted within a range of the absorbance of the standard curve at a wavelength of 450 nm. Next, the solutions for the standard curve, the sample solutions for the test group, and the sample solutions for the control group were added to a 96-well microplate (#3590, manufactured by Corning Incorporated) at 100 μL/well, and were incubated overnight at 40° C. For each sample, the measurement was performed at n=2.
After the solutions for the standard curve and the sample solutions were removed, 200 μL of washing buffer was used to wash the wells three times. The washing buffer (hereinafter, also referred to as a TBST solution) was prepared by adding Tween-20 at a final concentration of 0.05% to Tris buffered saline (pH 7.6).
Then, 200 μL of blocking buffer (1% bovine serum albumin-containing TBST solution) was added to each well, and the plate was incubated at room temperature for 1 hour. After the blocking buffer had been removed, a primary antibody (an anti-human Muc5ac antibody, manufactured by NeoMarkers, Inc.; Clone 45M1) solution, which was 100-fold diluted with the blocking buffer, was added to the plate at 100 μL/well, and the plate was incubated at room temperature for 1 hour. After the primary antibody solution was removed, 200 μL of the washing buffer was used to wash the wells three times.
Then, a secondary antibody (an HRP-labelled sheep anti-mouse IgG antibody, manufactured by GE Healthcare, Inc.) solution, which was 2000-fold diluted with the blocking buffer, was added to the plate at 100 μL/well, and the plate was incubated at room temperature for 1 hour. After the secondary antibody solution was removed, 200 μL of the washing buffer was used to wash the wells three times.
In order to quantify the Muc5ac content in each sample, 100 μL of 3,3′,5,5′-tetramethylbenzidine was added to each well and the plate was incubated for coloring at room temperature for 30 minutes; and then 100 μL of 0.5 M sulfuric acid solution was added to each well to stop the reaction. Next, a microplate reader was used to measure the absorbance of each well at a wavelength of 450 nm. The Muc5ac content in each sample was calculated using the standard curve. […]
The amount of Muc5ac included in the culture supernatant was detected using the same ELISA assay as in Example 1.

SMILES strings stand for the structures.

The source of these data is US9555028B2, “Drug for preventing/treating ocular disease” (JAPAN BIO PRODUCTS CO., LTD., priority 2012, dated 2017).

Consider `O=C1NC(CO)C(=O)N2CC(O)CC12` [Compound 1, cyclo-trans-4-L-hydroxyprolyl-L-serine], for which the “amount of Muc5ac in culture supernatant of conjunctival tissue compared with control group” value in test [1] is reported as “remarkably high”. In addition, in test [2], the “amount of Muc5ac (stained red-purple) in the conjunctival tissue by PAS staining versus control group” value is “apparently lower”. In addition, the “amount of Muc5ac protein in the conjunctival tissue versus control group” value in test [3] is “approximately equal”. Also, the “wound area of corneal epithelium versus control group” value in test [4] (from Day 1, t-test p<0.01, FIG. 3) is “smaller”. The “time required for complete cure of the wound” value in test [4] (control group 5 days) is reported as 4 days. In addition, the “amount of Muc5ac in culture supernatant, concentration dependence” value in test [5] (0, 1, 10 or 100 μM, soaked 6 hours, n=5, FIG. 2) is listed as “increased depending on the concentration”. For the same compound, in test [5] (100 μM in HBSS, at 6 hours of culturing), the “difference in the amount of Muc5ac between presence and absence of Compound 1, across culture times” value is listed as “most prominent”. Further, the “amount of Muc5ac in culture supernatant compared with absence of Compound 1” value in test [5] (100 μM in HBSS, cultured 3 hours, n=5, FIG. 1(a)) is on record as “increased”. Moreover, the “amount of Muc5ac in culture supernatant in the presence of Compound 1” value in test [5] (100 μM in HBSS, cultured 6 hours) is listed as “increase”; in test [5] (100 μM in HBSS, cultured 12 hours) it was “increase”.
